We go through 24 molecules from patent publication US20110130426A1, “Novel Sulphonamide Derivatives as Glucocorticoid Receptor Modulators for the Treatment of Inflammatory Diseases” (ASTRAZENECA AB, priority 2004, published 2011).

Broadly, the IC50 is the concentration needed to halve the response being measured.

This assay concerns the target T1, recombinant human GR (Homo sapiens, UniProt P04150).
T1 construct: purchased Panvera/Invitrogen P2812 (kit P2893)
T1 sequence (P04150 1-777): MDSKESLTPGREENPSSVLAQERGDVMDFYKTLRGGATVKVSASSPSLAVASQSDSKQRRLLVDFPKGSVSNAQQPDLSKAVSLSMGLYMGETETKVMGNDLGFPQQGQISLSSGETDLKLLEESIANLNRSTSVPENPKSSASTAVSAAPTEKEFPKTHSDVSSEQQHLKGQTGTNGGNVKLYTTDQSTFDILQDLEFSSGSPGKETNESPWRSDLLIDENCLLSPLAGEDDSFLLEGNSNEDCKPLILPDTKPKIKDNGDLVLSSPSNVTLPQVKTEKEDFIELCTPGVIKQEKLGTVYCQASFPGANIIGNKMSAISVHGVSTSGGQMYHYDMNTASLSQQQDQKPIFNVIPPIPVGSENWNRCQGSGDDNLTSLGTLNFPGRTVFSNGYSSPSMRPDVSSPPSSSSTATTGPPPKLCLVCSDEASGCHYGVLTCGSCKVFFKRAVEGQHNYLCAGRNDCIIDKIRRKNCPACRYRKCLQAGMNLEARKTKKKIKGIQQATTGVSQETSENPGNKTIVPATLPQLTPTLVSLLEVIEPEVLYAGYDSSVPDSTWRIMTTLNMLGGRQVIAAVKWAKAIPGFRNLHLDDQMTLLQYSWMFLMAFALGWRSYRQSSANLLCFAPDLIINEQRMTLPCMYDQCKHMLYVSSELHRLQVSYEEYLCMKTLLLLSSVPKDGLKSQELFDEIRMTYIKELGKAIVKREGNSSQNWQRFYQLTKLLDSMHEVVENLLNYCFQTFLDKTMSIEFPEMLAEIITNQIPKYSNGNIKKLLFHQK
Put plainly: Human Glucocorticoid Receptor (GR) Assay, fluorescence polarization. The settings on record: GS Red tracer, 2 hours at room temperature. The assay is classed as binding. How it is done:
Human Glucocorticoid Receptor (GR) Assay
The assay is based on a commercial kit from Panvera/Invitrogen (Part number P2893). The assay technology is fluorescence polarization. The kit utilises recombinant human GR (Panvera, Part number P2812), a Fluoromone™ labelled tracer (GS Red, Panvera, Part number P2894) and a Stabilizing Peptide 10X (Panvera, Part number P2815). The GR and Stabilizing Peptide reagents are stored at −70° C. while the GS Red is stored at −20° C. Also included in the kit are 1M DTT (Panvera, Part number P2325, stored at −20° C.) and GR Screening buffer 10X (Panvera, Part number P2814, stored at −70° C. initially but once thawed stored at room temperature). Avoid repeated freeze/thaws for all reagents. The GR Screening buffer 10X comprises 100 mM potassium phosphate, 200 mM sodium molybdate, 1 mM EDTA and 20% DMSO.
Test compounds (1 μL) and controls (1 μL) in 100% DMSO were added to black polystyrene 384-well plates (Greiner low volume black flat-bottom, part number 784076). 0% control was 100% DMSO and 100% control was 10 μM Dexamethasone. Background solution ([…]; assay buffer 10X, Stabilizing Peptide, DTT and ice cold MQ water) was added to the background wells. GS Red solution (7 μL; assay buffer 10X, Stabilizing Peptide, DTT, GS Red and ice cold water) was added to all wells except background wells. GR solution (7 μL; assay buffer 10X, Stabilizing Peptide, DTT, GR and ice cold water) was added to all wells. The plate was sealed and incubated in a dark at room temperature for 2 hours. The plate was read in an Analyst plate reader (LJL Biosystems/Molecular Devices Corporation) or other similar plate reader capable of recording fluorescence polarization (excitation wavelength 530 nm, emission wavelength […] and a dichroic mirror at 561 nm). The IC50 values were calculated using XLfit model 205.
Consider “N-{[5-(4-Chlorophenyl)-2-thienyl]methyl}-3-(4-methylphenoxy)benzenesulfonamide [Example 32]”, for which the IC50 was 390 nM.
For `O=S(=O)(NCc1ccc(-c2ccc(Cl)cc2)s1)c1ccc(F)cc1` [Example 21, N-{[5-(4-Chlorophenyl)-2-thienyl]methyl}-4-fluorobenzenesulfonamide] the value was 62 nM.
The result for “N-{[5-(4-Chlorophenyl)-2-thienyl]methyl}-4-(pyridin-2-yloxy)benzenesulfonamide [Example 25]” reads 170 nM; that for `CCCCOc1ccc(S(=O)(=O)NCc2c(-c3ccccc3)noc2C)cc1` [Example 6, 4-n-Butoxy-N-(5-methyl-3-phenyl-isoxazol-4-ylmethyl)-benzenesulfonamide], 700 nM.
The result for `Cc1cc(S(=O)(=O)Nc2cccc(CCc3ccccn3)c2)c(C)s1` [Example 28, 2,5-dimethyl-N-[3-(2-pyridin-2-ylethyl)phenyl]thiophene-3-sulfonamide] reads 220 nM.
Consider `O=S(=O)(Nc1cccc(CCc2ccccn2)c1)c1ccc(-c2ccccn2)s1` [Example 27, 5-Pyridin-2-yl-N-[3-(2-pyridin-2-ylethyl)phenyl]thiophene-2-sulfonamide], for which the IC50 came to 200 nM.
For `Cc1cc(C)c(S(=O)(=O)NCc2ccc(-c3ccc(Cl)cc3)s2)c(C)c1` [Example 19, N-{[5-(4-Chlorophenyl)-2-thienyl]methyl}-2,4,6-trimethylbenzenesulfonamide] the value was 36 nM; for `Cc1cc(C)cc(S(=O)(=O)Nc2cccc(CCc3ccccn3)c2)c1` [Example 29, 3,5-Dimethyl-N-[3-(2-pyridin-2-ylethyl)phenyl]benzenesulfonamide], 230 nM.
Take `COc1cc(C)c(S(=O)(=O)NCc2c(-c3ccccc3)noc2C)c(C)c1C` [Example 1, 4-Methoxy-2,3,6-trimethyl-N-(5-methyl-3-phenyl-isoxazol-4-ylmethyl)-benzenesulfonamide]: the IC50 is 14 nM.
As to `O=S(=O)(Nc1cccc(CCc2ccccn2)c1)c1ccc(Cl)s1` [Example 33, 5-Chloro-N-[3-(2-pyridin-2-ylethyl)phenyl]thiophene-2-sulfonamide], the IC50 stood at 650 nM.
The result for `O=S(=O)(NCc1ccc(-c2ccc(Cl)cc2)s1)c1ccccc1Br` [Example 24, 2-Bromo-N-{[5-(4-chlorophenyl)-2-thienyl]methyl}benzenesulfonamide] reads 170 nM; that for `Cn1nc(-c2ccc(S(=O)(=O)Nc3cccc(CCc4ccccn4)c3)s2)cc1C(F)(F)F` [Example 23, 5-[1-Methyl-5-(trifluoromethyl)-1H-pyrazol-3-yl]-N-[3-(2-pyridin-2-ylethyl)phenyl]-thiophene-2-sulfonamide], 110 nM.
As to `COc1cccc(S(=O)(=O)NCc2ccc(-c3ccc(Cl)cc3)s2)c1` [Example 30, N-{[5-(4-Chlorophenyl)-2-thienyl]methyl}-3-methoxybenzenesulfonamide], the IC50 was determined as 310 nM.
The result for `O=[N+]([O-])c1ccc(S(=O)(=O)NCc2ccc(-c3ccc(Cl)cc3)s2)cc1` [Example 20, N-{[5-(4-Chlorophenyl)-2-thienyl]methyl}-4-nitrobenzenesulfonamide] reads 59 nM; that for `Cc1nn(C(F)F)c(C)c1S(=O)(=O)Nc1cccc(CCc2ccccn2)c1` [Example 36, 1-(Difluoromethyl)-3,5-dimethyl-N-[3-(2-pyridin-2-ylethyl)phenyl]-1H-pyrazole-4-sulfonamide], 810 nM; that for `Cc1cc(S(=O)(=O)Nc2cccc(CCc3ccccn3)c2)c(C)o1` [Example 35, 2,5-Dimethyl-N-[3-(2-pyridin-2-ylethyl)phenyl]furan-3-sulfonamide], 710 nM.
For `Cc1onc(-c2ccccc2)c1CNS(=O)(=O)c1ccc(-c2ccccc2)cc1` [Example 5, Biphenyl-4-sulfonic acid (5-methyl-3-phenyl-isoxazol-4-ylmethyl)-amide] the value was 370 nM; for `Cc1ccc(C)c(S(=O)(=O)Nc2cccc(CCc3ccccn3)c2)c1` [Compound 49], 350 nM; for `Cc1c(S(=O)(=O)Nc2cccc(CCc3ccccn3)c2)cnn1-c1ccccc1` [Example 22, 5-Methyl-1-phenyl-N-[3-(2-pyridin-2-ylethyl)phenyl]-1H-pyrazole-4-sulfonamide], 99 nM.
Regarding `Cc1onc(-c2ccccc2)c1CNS(=O)(=O)c1ccc(-c2ccc(F)cc2)cc1` [Example 2, 4′-Fluoro-biphenyl-4-sulfonic acid (5-methyl-3-phenyl-isoxazol-4-ylmethyl)-amide], the IC50 is 35 nM.
Take `O=S(=O)(Cc1ccc(Cl)cc1)NCc1ccc(-c2ccc(Cl)cc2)s1` [Example 34, 1-(4-Chlorophenyl)-N-{[5-(4-chlorophenyl)-2-thienyl]methyl}methanesulfonamide]: the IC50 stood at 660 nM.
For `N#Cc1cccc(S(=O)(=O)NCc2ccc(-c3ccc(Cl)cc3)s2)c1` [Example 37, N-{[5-(4-Chlorophenyl)-2-thienyl]methyl}-3-cyanobenzenesulfonamide] the value was 820 nM; for `COc1cc(C)c(S(=O)(=O)NCc2ccc(-c3ccc(Cl)cc3)s2)c(C)c1C` [Example 31, N-{[5-(4-Chlorophenyl)-2-thienyl]methyl}-4-methoxy-2,3,6-trimethylbenzenesulfonamide], 330 nM.
For `COc1ccc(S(=O)(=O)NCc2ccc(-c3ccc(Cl)cc3)s2)cc1` [Example 26, N-{[5-(4-Chlorophenyl)-2-thienyl]methyl}-4-methoxybenzenesulfonamide] the value was 200 nM.
